These results are taken from patent US20180071248A1, “COMPOSITION FOR IMPROVING CIRCADIAN RHYTHM” (SUNTORY HOLDINGS LIMITED, priority 2015, published 2018).

One experiment has as its system circadian rhythm. As to conditions: disclosed in NPLs 4 and 5; cited from earlier work.
For experiment [1], the system named is Per 2 gene expression rhythm. In words: Per 2 gene expression rhythm in Per2::LUC knock-in mouse-derived embryonic fibroblast line (luciferase chemiluminescence, LumiCycle). In kind it is cell-based. As to conditions: Per2::LUC mouse embryonic fibroblasts; each substance at 10 μM; FIG. 4. Here is the method: The cell line used was Per2::LUC knock-in mouse-derived embryonic fibroblast line. Per2::LUC knock-in mouse is a mouse in which the luciferase gene serving as a reporter is introduced downstream of the promoter region of the clock gene Per 2. Therefore, a Per 2::LUC knock-in mouse-derived embryonic fibroblast line expresses the luciferase gene along with periodic expression of the clock gene. When Per 2::LUC knock-in mouse-derived embryonic fibroblasts are cultured in a culture medium containing luciferin, a luciferase substrate, the cells produce chemiluminescence periodically; thus, by monitoring the chemiluminescence, the expression rhythm of the clock gene Per 2 can be evaluated.
At first, about 5×10^5 cells of the Per2::LUC knock-in mouse-derived embryonic fibroblast line were seeded onto 35 mm culture dishes, and then treated with 200 nM dexamethasone for 2 hours to thereby reset (tune) the biorhythm of the cells. […] While the cell culture was continued, the chemiluminescence of the reporter gene was measured real-time with a luminometer (LumiCycle; produced by Actimetrics) for one minute at a frequency of every 10 minutes, and the measurement was continued for 5 days. Amplitude and period length were calculated from the obtained waveform to evaluate the effect of the test substance, a 1:1 mixture of sesamin/episesamin. […]

The structures appear in SMILES notation.

Regarding `Cn1c(=O)c2c(ncn2C)n(C)c1=O` [caffeine], in the experiment with circadian rhythm, the circadian rhythm amplitude result is listed as “amplify circadian rhythm amplitude” and the circadian rhythm period entry is “lengthen circadian rhythm period”.
In the case of `c1cc2c(cc1[C@H]1OC[C@H]3[C@@H]1CO[C@@H]3c1ccc3c(c1)OCO3)OCO2` [sesamin], in experiment [1], the “amplitude of Per 2 gene expression” value was “capable of increasing the amplitude”.
Still for that read-out and setting: then `Oc1cc2c(cc1[C@H]1OC[C@H]3[C@@H]1CO[C@@H]3c1ccc3c(c1)OCO3)OCO2` [sesaminol], with “capable of increasing the amplitude”.
